Experimental data taken from US20230247990A1, “Stable Botanical Antimicrobial Compositions” (The Trustees of Columbia University in the city of New York, priority 2020, published 2023).

Experiment: Accelerated aging method, long term stability at 45° C.
Format: physicochemical
Conditions: temperature higher than 40° C., including 45° C. of the accelerated aging method
Experimental: In certain embodiments, the 1 year period is achieved through simulating such conditions with the accelerated aging method. The accelerated aging method can be conducted by keeping the solutions at 45° C. for 8 weeks, which is equivalent to stability of 1 year under regular, room temperature conditions.
The accelerated aging method was conducted by keeping the solutions at 45° C. for 8 weeks, which is equivalent to stability of 1 year at regular, room temperature conditions.

Solubility in solvents at elevated temperature: gradually precipitates
SMILES: C=CCCCCCCCCC(=O)O [Undecylenic acid]
